In US20200289474A1, “METHODS OF TREATING PAIN WITH A THIAZOLINE ANTI-HYPERALGESIC” (priority 2019, published 2020):

Assays:
Type in all cases: in vivo, rat
[1] = test system: STZ-induced mechanical allodynia; assay: STZ-induced diabetic rats, subsequent study
Description: (§1) Experiments were conducted to determine the effect of Compound 1 in streptozotocin (STZ)-induced diabetic rats. In the first experiment, after obtaining mechanical threshold baselines, STZ (50 mg/kg IV) was administered (Day −7). Two days later, blood glucose levels were measured and animals that were hyperglycemic (>250 mg/dL) continued in the study. On Day 0 the baseline for mechanical thresholds prior to dosing with test articles was established for the rats. Compound 1 (10, 30, and 100 mg/kg PO), gabapentin (100 mg/kg PO) or vehicle was then administered daily for 5 days. On Day 0 mechanical thresholds were obtained at 1, 3, and 6 h post-dose. On Day 1 mechanical thresholds were measured immediately prior to dosing and then 3 h post-dose. The same regimen was followed on Day 3.
In a subsequent study, the same STZ paradigm was followed. However, in addition to the 100 mg/kg Compound 1 group, two additional cohorts received the Compound 1 100 mg/kg dose split into two or three doses per day with 50 mg/kg BID and 33 mg/kg TID. In addition to the gabapentin (100 mg/kg PO) group, a separate cohort received duloxetine (30 mg/kg PO). Additionally, in this study mechanical threshold testing was implemented every day immediately prior to dosing and 2 h post-dose for 7 days.

[2] = test system: STZ-induced mechanical allodynia; assay: streptozotocin (STZ)-induced diabetic rats, first experiment; conditions: gabapentin 100 mg/kg PO daily; 1 h post-dose Day 0 and all time points thereafter
Description: FIG. 14 illustrates non-limiting reversal of mechanical hypersensitivity by Compound 1 in a diabetic neuropathy model, in accordance with various embodiments. Streptozotocin (STZ) destroys insulin-producing cells and generates a diabetic phenotype in […]. Animals were dosed with STZ on day −7. By day 0 animals are hyperglycemic and hyperalgesic (day 0 BL).
as §1

[3] = test system: incision-induced hyperalgesia; assay: Brennan protocol, treatment paradigm (established hyperalgesia); conditions: morphine 3 mg/kg SC
Description: Two incisional pain models were used to assess Compound 1 effects on hyperalgesia. The first model is referred to as the Brennan model in which, under anesthesia, a 1 cm longitudinal incision to the skin and underlying fascia of a rat hindpaw is made. The second is a variation but is a more invasive procedure in which the skin and muscle are spread apart using forceps which creates a longer-lasting hypersensitivity.
Using the Brennan protocol and a treatment paradigm in rat, Compound 1 (10 and 30 mg/kg PO), morphine (3 mg/kg SC) or vehicle were administered daily at 24 h post-incision, and again at 48 and 72 h post-incision. Mechanical thresholds were obtained at 1 h and 2 h post-dose in all cohorts on all days.

CNCC[C@H](Oc1cccc2ccccc12)c1cccs1 [duloxetine, reference compound]
reversal of allodynia ([1]; duloxetine 30 mg/kg PO): required successive doses for appreciable activity

NCC1(CC(=O)O)CCCCC1 [gabapentin, reference compound]
reversal of allodynia (mechanical thresholds) [2]: significant reversal of allodynia
reversal of allodynia ([1]; gabapentin 100 mg/kg PO, throughout the study): robustly reversed the allodynia

CN1CC[C@]23c4c5ccc(O)c4O[C@H]2[C@@H](O)C=C[C@H]3[C@H]1C5 [morphine]
mechanical threshold ([3]; Day 1, 1 h post-dose (baseline 35 g)): 45 g
analgesic effect ([3]; Day 1, 2 h post-dose): this effect waned
hyperalgesia ([3]; Day 2, 1 h): not hyperalgesic
hyperalgesia ([3]; Day 2, 2 h): mild hyperalgesia
mechanical threshold ([3]; Day 2 prior to dosing): < 15 g
